Data: US20100080786A1, “Phenyl or Pyridinyl Substituted Indazoles Derivatives” (priority 2008, published 2010)

target: T1, Human Glucocorticoid Receptor (GR) (Homo sapiens, UniProt P04150); assay: Human Glucocorticoid Receptor (GR) radioligand binding assay (3H-dexamethasone competition); details: full length GR; 7 nM 3H-dexamethasone; 2 h at room temperature
T1 construct: The full length GR was diluted to a final concentration of 3.3% (0.495 mg/ml) in assay buffer
T1 sequence (P04150 1-777): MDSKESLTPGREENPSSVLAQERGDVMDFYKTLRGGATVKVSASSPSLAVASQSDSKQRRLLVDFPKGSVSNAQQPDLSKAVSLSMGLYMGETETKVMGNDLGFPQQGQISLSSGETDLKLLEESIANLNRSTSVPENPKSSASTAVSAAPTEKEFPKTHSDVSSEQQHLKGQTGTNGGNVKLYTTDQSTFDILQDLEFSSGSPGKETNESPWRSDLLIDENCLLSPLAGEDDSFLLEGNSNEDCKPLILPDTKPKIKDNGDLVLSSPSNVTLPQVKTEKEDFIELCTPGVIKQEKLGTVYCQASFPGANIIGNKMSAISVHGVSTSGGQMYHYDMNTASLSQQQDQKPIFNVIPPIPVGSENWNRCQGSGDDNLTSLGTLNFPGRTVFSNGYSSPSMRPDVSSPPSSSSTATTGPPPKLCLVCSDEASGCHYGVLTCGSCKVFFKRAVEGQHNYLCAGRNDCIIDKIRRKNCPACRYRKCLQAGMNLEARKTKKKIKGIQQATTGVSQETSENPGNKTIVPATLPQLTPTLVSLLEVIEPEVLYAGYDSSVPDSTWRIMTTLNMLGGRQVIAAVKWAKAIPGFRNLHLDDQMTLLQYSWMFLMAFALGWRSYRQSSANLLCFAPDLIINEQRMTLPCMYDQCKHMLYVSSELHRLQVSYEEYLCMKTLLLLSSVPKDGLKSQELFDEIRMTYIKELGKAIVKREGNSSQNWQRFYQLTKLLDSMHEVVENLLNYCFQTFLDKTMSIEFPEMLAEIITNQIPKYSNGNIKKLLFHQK
Procedure: Human Glucocorticoid Receptor (GR) Assay
The radioligand GR binding assay is based on a competition assay using ^3H-labeled Dexamethasone. Dexamethasone is known to bind in the ligand binding domain of GR and compete for binding with endogenous ligands like e.g. cortisol (Necela, 2003). In the GR radioligand binding assay, test compounds were serially diluted in semi-log steps (10 concentrations) with a final concentration of 10 μM. Test compounds (1 μL) and controls (1 μL) in 100% DMSO were added to 96 Greiner V-bottom polypropylene plates. 0% control was 6.7% DMSO (final concentration in assay) and 100% control was 6.7 μM Dexamethasone.
The full length GR was diluted to a final concentration of 3.3% (0.495 mg/ml) in assay buffer (20 mM Tris-HCl, 1 mM EDTA, 10% (w/v) Glycerol, 20 mM Sodium molybdate, pH 7.4). 45 μL of GR was added to each well and the plates were incubated for 15 min at room temperature.
^3H-dexamethasone solution was diluted to a concentration of 70 nM in assay buffer (7 nM final assay concentration) and 5 μL was added to each well. The samples were mixed for 5 min using a plate shaker at 700 rpm, before incubation for 2 h at room temperature.
50 μL ice-cold charcoal solution (pH 7.4:2% Charcoal, 0.2% Dextran T70 in 20 mM Tris-HCl, 1 mM EDTA and 20 mM Sodium molybdate) was added to each well and the samples were mixed on plate shaker for 5 minutes.
The plate was then centrifuged for 1.5 min at 1500 rpm, the samples (80 μL) were is transferred from each well to a filter plate (Millipore, 0.45 μm, MHVBN45) on a vacuum manifold and then collected into new plates (Greiner, 96 well white/transparent, 655095). The filter plate was washed once with 20 μl of water and then 100 μL of scintillation liquid was added to each well and mixed by incubation on plate shaker for 5 min. Radioactivity was measured in a 1450 Microbeta Trilux Reader (Wallac) counting cpm for 2 minutes per well. The data obtained from each replicate experiment were analysed using the software ActivityBase, version 5.4.3 (ID Business Solutions Ltd) and IC50 values were calculated. Ref: Necela, B M, Cidlowski, J A, Trends Pharmacol Sci, 24: 58, 2003

`C[C@H](NC(=O)C(C)(F)F)[C@H](Oc1ccc2c(cnn2-c2cccc(C(=O)NCc3n[nH]c4ccccc34)c2)c1)c1ccccc1` [Example 16, 3-[5-({(1R,2S)-2-[(2,2-difluoropropanoyl)amino]-1-phenylpropyl}oxy)-1H-indazol-1-yl]-N-(1H-indazol-3-ylmethyl)benzamide] was tested. Which IC50 did it give?
The IC50 was 42.4 nM.

How did the IC50 turn out when `C[C@H](NC(=O)C(C)(F)F)[C@H](Oc1ccc2c(cnn2-c2cccc(C(=O)N3C[C@H](O)C[C@H]3C(N)=O)c2)c1)c1ccccc1` [Example 20, (4R)-1-({3-[5-({(1R,2S)-2-[(2,2-difluoropropanoyl)amino]-1-phenylpropyl}oxy)-1H-indazol-1-yl]phenyl}carbonyl)-4-hydroxy-L-prolinamide] was run?
The IC50 was 75.9 nM.

How did the IC50 turn out when `C[C@H](NC(=O)C(C)(F)F)[C@H](Oc1ccc2c(cnn2-c2cccc(C(=O)NCCC(N)=O)c2)c1)c1ccccc1` [Example 19, N-(3-amino-3-oxopropyl)-3-[5-({(1R,2S)-2-[(2,2-difluoropropanoyl)amino]-1-phenylpropyl}oxy)-1H-indazol-1-yl]benzamide] was run?
Its IC50 is 2.29 nM.
